Results as given in article PMC3989234, “Introduction of Aromatic Ring-Containing Substituents in Cyclic Nucleotides Is Associated with Inhibition of Toxin Uptake by the Hepatocyte Transporters OATP 1B1 and 1B3” (PLoS ONE, 2014).
Where two headings read alike, the source gives them in different places.

Key:
OATP1B1 [1] = target: T1, OATP1B1 (Homo sapiens, UniProt Q9Y6L6)
T1 sequence (Q9Y6L6 1-691): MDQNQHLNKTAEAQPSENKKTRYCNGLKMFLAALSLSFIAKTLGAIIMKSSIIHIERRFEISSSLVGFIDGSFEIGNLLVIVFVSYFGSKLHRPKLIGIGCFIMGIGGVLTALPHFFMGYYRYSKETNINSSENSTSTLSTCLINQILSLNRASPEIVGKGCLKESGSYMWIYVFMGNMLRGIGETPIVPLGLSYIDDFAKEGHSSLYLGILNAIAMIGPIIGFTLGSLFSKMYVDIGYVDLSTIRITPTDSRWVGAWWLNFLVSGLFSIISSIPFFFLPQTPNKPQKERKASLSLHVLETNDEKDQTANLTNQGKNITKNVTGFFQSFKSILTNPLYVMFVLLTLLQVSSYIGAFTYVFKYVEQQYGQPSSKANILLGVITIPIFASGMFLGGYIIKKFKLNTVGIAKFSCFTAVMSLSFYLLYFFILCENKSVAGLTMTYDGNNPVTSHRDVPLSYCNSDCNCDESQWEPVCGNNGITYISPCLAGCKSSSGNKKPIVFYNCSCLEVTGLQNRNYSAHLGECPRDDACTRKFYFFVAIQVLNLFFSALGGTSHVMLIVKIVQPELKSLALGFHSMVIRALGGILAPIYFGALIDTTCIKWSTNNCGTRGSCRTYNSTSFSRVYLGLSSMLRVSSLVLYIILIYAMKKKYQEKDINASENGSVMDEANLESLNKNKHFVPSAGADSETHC

OATP1B3 [2] = target: T2, OATP1B3 (Homo sapiens, UniProt Q9NPD5)
T2 sequence (Q9NPD5 whole entry): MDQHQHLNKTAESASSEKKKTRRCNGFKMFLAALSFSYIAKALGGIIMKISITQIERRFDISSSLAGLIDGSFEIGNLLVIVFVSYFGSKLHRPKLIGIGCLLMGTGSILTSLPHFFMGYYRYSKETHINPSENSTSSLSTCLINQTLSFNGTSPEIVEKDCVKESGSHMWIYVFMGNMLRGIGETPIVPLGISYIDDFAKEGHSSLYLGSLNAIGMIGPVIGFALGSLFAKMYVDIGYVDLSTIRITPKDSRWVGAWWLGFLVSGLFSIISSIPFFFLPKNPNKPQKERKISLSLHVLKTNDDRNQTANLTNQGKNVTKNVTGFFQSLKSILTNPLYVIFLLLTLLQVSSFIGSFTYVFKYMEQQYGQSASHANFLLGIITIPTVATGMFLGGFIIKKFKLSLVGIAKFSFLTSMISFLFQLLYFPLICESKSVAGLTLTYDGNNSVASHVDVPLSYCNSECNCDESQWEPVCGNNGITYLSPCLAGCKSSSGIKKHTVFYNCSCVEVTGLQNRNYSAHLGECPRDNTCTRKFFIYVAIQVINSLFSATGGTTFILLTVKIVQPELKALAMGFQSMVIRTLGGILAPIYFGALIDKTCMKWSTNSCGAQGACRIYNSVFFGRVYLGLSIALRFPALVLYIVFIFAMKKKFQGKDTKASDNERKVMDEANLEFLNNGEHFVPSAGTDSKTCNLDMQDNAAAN

primary rat hepatocytes [3] = system: primary rat hepatocytes
OATP1B1 [4] = target: T1, OATP1B1; assay: cell-based
OATP1B3 [5] = target: T2, OATP1B3; assay: cell-based
primary rat hepatocytes [6] = system: primary rat hepatocytes; remark: listed apart in the source
primary rat hepatocytes [7] = system: primary rat hepatocytes; remark: listed apart in the source

Nc1ncnc2c1nc(Br)n2C1OC2COP(O)(=S)OC2C1O (single isomer, unassigned) [Rp-8-Br-cAMPS, 8-Bromoadenosine-3′, 5′-cyclic monophosphorothioate, Rp-isomer] was tested, and the IC50 (OATP1B1 [1]) was > 300 µM, the IC50 (OATP1B3 [2]) was > 300 µM and the “Effect on Nod-induced hepatocyte apoptosis (Fig. 1F)” value (primary rat hepatocytes [3]; 300 µM, 150 nM Nod) was “inhibited apoptotic morphology”.

In the case of COC1C2OP(O)(=S)OCC2OC1n1c(Sc2ccc(Cl)cc2)nc2c(N)ncnc21 (single isomer, unassigned) [Rp-8-pCPT-2′-O-Me-cAMPS, 8-(4-Chlorophenylthio)-2′-O-methyladenosine-3′, 5′-cyclic monophosphorothioate, Rp-isomer], the IC50 (OATP1B1 [1]) is reported as > 300 µM and the IC50 (OATP1B3 [2]) is reported as > 300 µM.

For CO[C@H]1C2OP(=O)(O)OC[C@H]2O[C@H]1n1c(Br)nc2c(N)ncnc21 (stereo partly shown) [8-Br-2′-O-Me-cAMP, 8-Bromo-2′-O-methyladenosine-3′, 5′-cyclic monophosphate], the IC50 (OATP1B1 [1]) was > 300 µM, the “Effect on Nod-induced apoptosis / Nod transport, OATP1B3-transfected HEK293T cells” value (OATP1B3 [2]) was “some inhibition” and the IC50 (OATP1B3 [2]) was > 300 µM.

CO[C@@H]1[C@H](O)[C@@H](CO)O[C@H]1n1c(Sc2ccc(Cl)cc2)nc2c(N)ncnc21 [8-pCPT-2′-O-Me-Ado, 8-(4-Chlorophenylthio)-2′-O-methyladenosine] showed an IC50 (OATP1B1 [4]) of 31.3 µM, a Ki (OATP1B1 [4]) of 10.4 µM and an IC50 (OATP1B3 [5]) of 17.2 µM. The Ki (OATP1B3 [5]) was 4.61 µM.

For CO[C@@H]1[C@@H]2OP(=O)(OCOC(C)=O)OC[C@H]2O[C@H]1n1c(Sc2ccc(Cl)cc2)nc2c(N)ncnc21 (stereo partly shown) [8-pCPT-2′-O-Me-cAMP-AM, 8-(4-Chlorophenylthio)-2′-O-methyladenosine-3′, 5′-cyclic monophosphate, acetoxymethyl ester], the “Effect on [3H]-Nod accumulation in hepatocytes” value (primary rat hepatocytes [6]) was “did not affect” and the “Effect on [14C]-glycocholic acid accumulation in hepatocytes” value (primary rat hepatocytes [7]; 50 µM) was “no inhibitory effect”.

Work on O=P1(O)OCC2OC(n3c(Sc4ccc(Cl)cc4)nc4c(Nc5ccccc5)ncnc43)C(O)C2O1 (stereo not shown) [8-pCPT-6-Phe-cAMP, 8-(4-Chlorophenylthio)-N^6-phenyladenosine-3′, 5′-cyclic monophosphate] yielded a Ki (OATP1B1 [1]) of 2.07 µM and a Ki (OATP1B3 [2]) of 0.804 µM.

Work on O=P1(O)OC[C@H]2O[C@@H](n3c(Sc4ccc(Cl)cc4)nc4c(Nc5ccccc5)ncnc43)C[C@@H]2O1 [8-pCPT-6-Phe-dcAMP, 8-(4-Chlorophenylthio)-N^6-phenyladenosine-2′-deoxyadenosine 3′, 5′-cyclic monophosphate] yielded an IC50 (OATP1B1 [1]) of 8.2 µM, a Ki (OATP1B1 [1]) of 2.73 µM and an IC50 (OATP1B3 [2]) of 8 µM. It also gave a Ki (OATP1B3 [2]) of 2.14 µM.

Nc1ncnc2c1ncn2[C@@H]1O[C@H](CO)[C@@H](O)[C@H]1O [Adenosine, adenosine] was tested, and the IC50 (OATP1B1 [4]) was > 300 µM and the IC50 (OATP1B3 [5]) was > 300 µM.

For CCCC(=O)Nc1ncnc2c1ncn2[C@@H]1O[C@@H]2COP(=O)(O)O[C@H]2[C@H]1O [Analog 6-MB-cAMP, N^6-Monobutyryladenosine-3′, 5′-cyclic monophosphate], the “Effect on Nod-induced apoptosis / Nod transport, OATP1B1-transfected HEK293T cells” value (OATP1B1 [1]) was “no inhibitory effect”, the IC50 (OATP1B1 [1]) was > 300 µM and the “Effect on Nod-induced apoptosis / Nod transport, OATP1B3-transfected HEK293T cells” value (OATP1B3 [2]) was “no inhibitory effect”. For the same compound, the IC50 (OATP1B3 [2]) was > 300 µM, the “Effect on Nod-induced hepatocyte apoptosis (Fig. 1A)” value (primary rat hepatocytes [3]) was “no change in apoptosis induction” and the “[14C]-GCA accumulation rel. to control” value (primary rat hepatocytes [7]; 50 µM) was “about 1.7”. For the same compound, the “[14C]-GCA accumulation rel. to control” value (primary rat hepatocytes [7]; 400 µM) was 1.1.

In the case of Nc1ncnc2c1nc(Br)n2[C@@H]1O[C@@H]2COP(=O)(O)O[C@H]2[C@H]1O [Analog 8-Br-cAMP, 8-Bromoadenosine-3′, 5′-cyclic monophosphate], the IC50 (OATP1B1 [1]) is reported as > 300 µM and the IC50 (OATP1B3 [2]) is reported as > 300 µM.

With Nc1nc2c(nc(Br)n2[C@@H]2O[C@@H]3COP(=O)(O)O[C@H]3[C@H]2O)c(=O)[nH]1 [Analog 8-Br-cGMP, 8-Bromoguanosine-3′, 5′-cyclic monophosphate] the “Effect on Nod-induced apoptosis / Nod transport, OATP1B1-transfected HEK293T cells” value (OATP1B1 [1]) was “inactive”, the IC50 (OATP1B1 [1]) was > 300 µM and the “Effect on Nod-induced apoptosis / Nod transport, OATP1B3-transfected HEK293T cells” value (OATP1B3 [2]) was “inactive”. The IC50 (OATP1B3 [2]) was > 300 µM.

Nc1ncnc2c1nc(Sc1ccc(Cl)cc1)n2[C@@H]1O[C@H](CO)[C@@H](O)[C@H]1O [Analog 8-pCPT-Ado, 8-(4-Chlorophenylthio)adenosine] was tested, and the IC50 (OATP1B1 [4]) was > 300 µM, the IC50 (OATP1B3 [5]) was 150 µM and the Ki (OATP1B3 [5]) was 40.2 µM.

With Nc1ncnc2c1nc(Sc1ccc(Cl)cc1)n2[C@@H]1O[C@@H]2COP(=O)([O-])O[C@H]2[C@H]1O.[Na+] [Analog 8-pCPT-cAMP, 8-(4-Chlorophenylthio)adenosine-3′, 5′-cyclic monophosphate] the “Effect on Nod-induced apoptosis / Nod transport, OATP1B1-transfected HEK293T cells” value (OATP1B1 [1]) was “inhibits”, the IC50 (OATP1B1 [1]) was 130 µM and the Ki (OATP1B1 [1]) was 43.3 µM. For the same compound, the “Effect on Nod-induced apoptosis / Nod transport, OATP1B3-transfected HEK293T cells” value (OATP1B3 [2]) was “inhibits”, the IC50 (OATP1B3 [2]) was 49.6 µM and the Ki (OATP1B3 [2]) was 13.3 µM. The “Effect on Nod-induced hepatocyte apoptosis (Fig. 1A)” value (primary rat hepatocytes [3]) was “inhibited completely apoptotic morphology”, the “Effect on Nod-induced hepatocyte apoptosis (Fig. 2A)” value (primary rat hepatocytes [3]) was “clear inhibition” and the “[14C]-GCA accumulation compared to control” value (primary rat hepatocytes [7]) was 60%.

In the case of Nc1nc2c(nc(Sc3ccc(Cl)cc3)n2[C@@H]2O[C@@H]3COP(=O)(O)O[C@H]3[C@H]2O)c(=O)[nH]1 [Analog 8-pCPT-cGMP, 8-(4-Chlorophenylthio)guanosine-3′, 5′-cyclic monophosphate], the IC50 (OATP1B1 [1]) is reported as 259 µM, the Ki (OATP1B1 [1]) is reported as 86.3 µM and the IC50 (OATP1B3 [2]) is reported as 88.8 µM. The Ki (OATP1B3 [2]) was 29.6 µM.

In the case of Nc1ncnc2c1nc(Sc1ccc(Cl)cc1)n2C1CC2OP(=O)(O)OCC2O1 (stereo not shown) [Analog 8-pCPT-dcAMP, 8-(4-Chlorophenylthio)adenosine-2′-deoxyadenosine-3′, 5′-cyclic monophosphate], the IC50 (OATP1B1 [1]) is reported as 223 µM, the Ki (OATP1B1 [1]) is reported as 74.7 µM and the IC50 (OATP1B3 [2]) is reported as 55.7 µM. The Ki (OATP1B3 [2]) was 14.9 µM, the “Effect on Nod-induced hepatocyte apoptosis (Fig. 2A)” value (primary rat hepatocytes [3]) was “blocked Nod-induced apoptosis” and the “Effect on [14C]-glycocholic acid accumulation in hepatocytes” value (primary rat hepatocytes [7]) was “inhibited uptake”.

With O=C1OC(c2ccc(O)c(S(=O)(=O)O)c2)(c2ccc(O)c(S(=O)(=O)O)c2)c2c(Br)c(Br)c(Br)c(Br)c21 [BSP, sulfobromophthalein] the “Effect on [3H]-Nod accumulation in hepatocytes” value (primary rat hepatocytes [6]) was “complete inhibition” and the “Effect on [14C]-glycocholic acid accumulation in hepatocytes” value (primary rat hepatocytes [7]; 50 µM) was “complete inhibition”.

With CCCC(=O)Nc1ncnc2c1ncn2[C@@H]1O[C@@H]2COP(=O)(O)O[C@H]2[C@H]1OC(=O)CCC [DB-cAMP, N^6, 2′-O-Dibutyryladenosine-3′, 5′-cyclic monophosphate] the “Effect on Nod-induced apoptosis / Nod transport, OATP1B1-transfected HEK293T cells” value (OATP1B1 [1]; human) was “but not to OATP1B1 activity”, the IC50 (OATP1B1 [4]) was > 300 µM and the IC50 (OATP1B3 [5]) was 119 µM.

In the case of CC(C)Cn1c(=O)n(C)c(=O)c2[nH]cnc21 [IBMX], the “Effect on Nod-induced apoptosis, OATP1B1-transfected cells” value (OATP1B1 [1]; 250 µM) is reported as “did not affect” and the “Effect on Nod-induced apoptosis, OATP1B3-transfected cells” value (OATP1B3 [2]; 250 µM) is reported as “did not affect”.

C/C=C1/C(=O)N[C@@H](C(=O)O)[C@H](C)C(=O)N[C@@H](CCCNC(=N)N)C(=O)N[C@@H](/C=C/C(C)=C/[C@H](C)[C@H](Cc2ccccc2)OC)[C@H](C)C(=O)N[C@@H](C(=O)O)CCC(=O)N1C [Nod, nodularin] showed a Km (OATP1B1 [1]; read-out: Km for Nod, OATP1B1) of 0.05 µM and a Km (OATP1B3 [2]; read-out: Km for Nod, OATP1B3) of 0.22 µM.

In the case of Nc1ncnc2c1ncn2C1OC2COP(=O)(O)OC2C1O (stereo not shown) [cAMP], the “Effect on Nod-induced apoptosis / Nod transport, OATP1B1-transfected HEK293T cells” value (OATP1B1 [1]) is reported as “did not affect”, the “Effect on Nod-induced apoptosis / Nod transport, OATP1B3-transfected HEK293T cells” value (OATP1B3 [2]) is reported as “did not affect” and the IC50 (OATP1B1 [4]) is reported as > 300 µM. The IC50 (OATP1B3 [5]) was > 300 µM.

For Nc1nc2c(ncn2[C@@H]2O[C@@H]3COP(=O)(O)O[C@H]3[C@H]2O)c(=O)[nH]1 [cGMP], the “Effect on Nod-induced apoptosis / Nod transport, OATP1B1-transfected HEK293T cells” value (OATP1B1 [1]) was “did not affect”, the IC50 (OATP1B1 [1]) was > 300 µM and the “Effect on Nod-induced apoptosis / Nod transport, OATP1B3-transfected HEK293T cells” value (OATP1B3 [2]) was “did not affect”. For the same compound, the IC50 (OATP1B3 [2]) was > 300 µM.

With CO[C@H]1/C=C/O[C@@]2(C)Oc3c(C)c(O)c4c(O)c(cc(O)c4c3C2=O)NC(=O)/C(C)=C\C=C\[C@H](C)[C@H](O)[C@@H](C)[C@@H](O)[C@@H](C)[C@H](OC(C)=O)[C@@H]1C [rifamycin SV, Rifamycin SV] the “Effect on Nod-induced apoptosis / Nod transport, OATP1B1-transfected HEK293T cells” value (OATP1B1 [1]) was “abolished” and the “Effect on Nod-induced apoptosis / Nod transport, OATP1B3-transfected HEK293T cells” value (OATP1B3 [2]) was “abolished”.
